Assay results: ChEMBL document CHEMBL3745645, “Synthesis, in vitro antitumor activity, dihydrofolate reductase inhibition, DNA intercalation and structure-activity relationship studies of 1,3,5-triazine analogues” (Bioorg Med Chem Lett, 2016)
Active and inactive are the calls of the source. The calls are words filed in the database; no cut-off is given here.

Key:
Type in all cases: functional
[1] = Cytotoxicity against human Caki1 cells at 10 uM after 48 hrs by SRB assay; settings: CAKI-1, 48 h, read-out: GI
[2] = Cytotoxicity against human RXF393 cells at 10 uM after 48 hrs by SRB assay; settings: RXF 393, 48 h, read-out: GI
SN12C = assay: Cytotoxicity against human SN12C cells at 10 uM after 48 hrs by SRB assay; settings: read-out: GI
TK-10 = assay: Cytotoxicity against human TK10 cells at 10 uM after 48 hrs by SRB assay
[3] = Cytotoxicity against human UO31 cells at 10 uM after 48 hrs by SRB assay; settings: UO-31, 48 h, read-out: GI
[4] = Cytotoxicity against human PC3 cells at 10 uM after 48 hrs by SRB assay; settings: PC-3, 48 h, read-out: GI
[5] = Cytotoxicity against human DU145 cells at 10 uM after 48 hrs by SRB assay; settings: DU-145, 48 h, read-out: GI
MCF7 = assay: Cytotoxicity against human MCF7 cells at 10 uM after 48 hrs by SRB assay; settings: MCF7, 48 h, read-out: GI
MDA-MB-231 = assay: Cytotoxicity against human MDA-MB-231 cells at 10 uM after 48 hrs by SRB assay; settings: MDA-MB-231, 48 h, read-out: GI
[6] = Cytotoxicity against human Hs 578T cells at 10 uM after 48 hrs by SRB assay; settings: read-out: GI
BT-549 = assay: Cytotoxicity against human BT549 cells at 10 uM after 48 hrs by SRB assay
T47D = assay: Cytotoxicity against human T47D cells at 10 uM after 48 hrs by SRB assay
MDA-MB-468 = assay: Cytotoxicity against human MDA-MB-468 cells at 10 uM after 48 hrs by SRB assay; settings: MDA-MB-468, 48 h, read-out: GI
CCRF-CEM = assay: Cytotoxicity against human CCRF-CEM cells at 10 uM after 48 hrs by SRB assay; settings: read-out: GI
[7] = Cytotoxicity against human HL-60(TB) cells at 10 uM after 48 hrs by SRB assay; settings: HL-60, 48 h, read-out: GI
K562 = assay: Cytotoxicity against human K562 cells at 10 uM after 48 hrs by SRB assay; settings: K562, 48 h, read-out: GI
[8] = Cytotoxicity against human MOLT4 cells at 10 uM after 48 hrs by SRB assay; settings: MOLT-4, 48 h, read-out: GI
[9] = Cytotoxicity against human RPMI8226 cells at 10 uM after 48 hrs by SRB assay; settings: RPMI-8226, 48 h, read-out: GI
SR = assay: Cytotoxicity against human SR cells at 10 uM after 48 hrs by SRB assay; settings: read-out: GI
A549 = assay: Cytotoxicity against human A549 cells at 10 uM after 48 hrs by SRB assay; settings: A549, 48 h, read-out: GI
[10] = Cytotoxicity against human HOP62 cells at 10 uM after 48 hrs by SRB assay; settings: HOP-62, 48 h, read-out: GI
[11] = Cytotoxicity against human HOP92 cells at 10 uM after 48 hrs by SRB assay; settings: HOP-92, 48 h, read-out: GI
NCI-H226 = assay: Cytotoxicity against human NCI-H226 cells at 10 uM after 48 hrs by SRB assay; settings: NCI-H226, 48 h, read-out: GI
NCI-H460 = assay: Cytotoxicity against human NCI-H460 cells at 10 uM after 48 hrs by SRB assay; settings: NCI-H460, 48 h, read-out: GI
NCI-H522 = assay: Cytotoxicity against human NCI-H522 cells at 10 uM after 48 hrs by SRB assay; settings: NCI-H522, 48 h, read-out: GI
COLO 205 = assay: Cytotoxicity against human COLO205 cells at 10 uM after 48 hrs by SRB assay
[12] = Cytotoxicity against human HCC2998 cells at 10 uM after 48 hrs by SRB assay; settings: HCC 2998, 48 h, read-out: GI
[13] = Cytotoxicity against human HCT116 cells at 10 uM after 48 hrs by SRB assay; settings: HCT-116, 48 h, read-out: GI
[14] = Cytotoxicity against human HCT15 cells at 10 uM after 48 hrs by SRB assay; settings: HCT-15, 48 h, read-out: GI
HT-29 = assay: Cytotoxicity against human HT-29 cells at 10 uM after 48 hrs by SRB assay; settings: HT-29, 48 h, read-out: GI
KM12 = assay: Cytotoxicity against human KM12 cells at 10 uM after 48 hrs by SRB assay; settings: KM12, 48 h, read-out: GI
[15] = Cytotoxicity against human SW620 cells at 10 uM after 48 hrs by SRB assay; settings: SW-620, 48 h, read-out: GI
[16] = Cytotoxicity against human SF268 cells at 10 uM after 48 hrs by SRB assay; settings: SF-268, 48 h, read-out: GI
[17] = Cytotoxicity against human SF295 cells at 10 uM after 48 hrs by SRB assay; settings: SF-295, 48 h, read-out: GI
[18] = Cytotoxicity against human SF539 cells at 10 uM after 48 hrs by SRB assay; settings: SF-539, 48 h, read-out: GI
SNB-19 = assay: Cytotoxicity against human SNB19 cells at 10 uM after 48 hrs by SRB assay
[19] = Cytotoxicity against human SNB75 cells at 10 uM after 48 hrs by SRB assay; settings: SNB-75, 48 h, read-out: GI
[20] = Cytotoxicity against human LOXIMVI cells at 10 uM after 48 hrs by SRB assay; settings: LOX IMVI, read-out: GI
Malme-3M = assay: Cytotoxicity against human MALME-3M cells at 10 uM after 48 hrs by SRB assay; settings: read-out: GI
M14 = assay: Cytotoxicity against human M14 cells at 10 uM after 48 hrs by SRB assay
MDA-MB-435 = assay: Cytotoxicity against human MDA-MB-435 cells at 10 uM after 48 hrs by SRB assay; settings: MDA-MB-435, 48 h, read-out: GI
SK-MEL-2 = assay: Cytotoxicity against human SK-MEL-2 cells at 10 uM after 48 hrs by SRB assay
SK-MEL-28 = assay: Cytotoxicity against human SK-MEL-28 cells at 10 uM after 48 hrs by SRB assay
SK-MEL-5 = assay: Cytotoxicity against human SK-MEL-5 cells at 10 uM after 48 hrs by SRB assay; settings: SK-MEL-5, 48 h, read-out: GI
[21] = Cytotoxicity against human UACC257 cells at 10 uM after 48 hrs by SRB assay; settings: UACC-257, 48 h, read-out: GI
[22] = Cytotoxicity against human UACC62 cells at 10 uM after 48 hrs by SRB assay; settings: UACC-62, 48 h, read-out: GI
[23] = Cytotoxicity against human IGROV1 cells at 10 uM after 48 hrs by SRB assay; settings: IGROV-1, 48 h, read-out: GI
[24] = Cytotoxicity against human OVCAR3 cells at 10 uM after 48 hrs by SRB assay; settings: OVCAR-3, 48 h, read-out: GI
[25] = Cytotoxicity against human OVCAR4 cells at 10 uM after 48 hrs by SRB assay; settings: OVCAR-4, 48 h, read-out: GI
[26] = Cytotoxicity against human OVCAR5 cells at 10 uM after 48 hrs by SRB assay; settings: OVCAR-5, 48 h, read-out: GI
[27] = Cytotoxicity against human OVCAR8 cells at 10 uM after 48 hrs by SRB assay; settings: OVCAR-8, 48 h, read-out: GI
NCI/ADR-RES = assay: Cytotoxicity against human NCI-ADR-RES cells at 10 uM after 48 hrs by SRB assay
SK-OV-3 = assay: Cytotoxicity against human SKOV3 cells at 10 uM after 48 hrs by SRB assay
786-0 = assay: Cytotoxicity against human 786-0 cells at 10 uM after 48 hrs by SRB assay; settings: 786-0, 48 h, read-out: GI
A498 = assay: Cytotoxicity against human A498 cells at 10 uM after 48 hrs by SRB assay; settings: A498, 48 h, read-out: GI
ACHN = assay: Cytotoxicity against human ACHN cells at 10 uM after 48 hrs by SRB assay; settings: read-out: GI

Which results are given for `Cc1nc2cc(Nc3nc(Nc4ccc(O)cc4)nc(Nc4ccc(F)cc4)n3)ccc2n1Cc1ccccc1`?
inhibition of growth at 10 µM [1]: 4.53%; inhibition of growth at 10 µM [2]: 18.8%; inhibition of growth at 10 µM (SN12C): 2.54%; growth inhibition (GI) (TK-10): inactive; inhibition of growth at 10 µM [3]: 6.02%; inhibition of growth at 10 µM [4]: 10.7%; inhibition of growth at 10 µM [5]: 41.6%; inhibition of growth at 10 µM (MCF7): 16%; inhibition of growth at 10 µM (MDA-MB-231): 11.3%; inhibition of growth at 10 µM [6]: 1.42%; growth inhibition (GI) (BT-549): inactive; growth inhibition (GI) (T47D): inactive; inhibition of growth at 10 µM (MDA-MB-468): 13.4%; inhibition of growth at 10 µM (CCRF-CEM): 8.15%; inhibition of growth at 10 µM [7]: 6.96%; inhibition of growth at 10 µM (K562): 21.3%; inhibition of growth at 10 µM [8]: 19.8%; inhibition of growth at 10 µM [9]: 26.7%; inhibition of growth at 10 µM (SR): 20.8%; inhibition of growth at 10 µM (A549): 22.2%; inhibition of growth at 10 µM [10]: 3.47%; inhibition of growth at 10 µM [11]: 17.8%; inhibition of growth at 10 µM (NCI-H226): 12.8%; inhibition of growth at 10 µM (NCI-H460): 18.2%; inhibition of growth at 10 µM (NCI-H522): 15.1%; growth inhibition (GI) (COLO 205): inactive; inhibition of growth at 10 µM [12]: 4.67%; inhibition of growth at 10 µM [13]: 10.6%; inhibition of growth at 10 µM [14]: 17.3%; inhibition of growth at 10 µM (HT-29): 4.8%; inhibition of growth at 10 µM (KM12): 17.6%; inhibition of growth at 10 µM [15]: 18.8%; inhibition of growth at 10 µM [16]: 11.2%; inhibition of growth at 10 µM [17]: 5.35%; inhibition of growth at 10 µM [18]: 6.34%; growth inhibition (GI) (SNB-19): inactive; inhibition of growth at 10 µM [19]: 15.1%; inhibition of growth at 10 µM [20]: 3.79%; inhibition of growth at 10 µM (Malme-3M): 0.89%; growth inhibition (GI) (M14): inactive; inhibition of growth at 10 µM (MDA-MB-435): 4.26%; growth inhibition (GI) (SK-MEL-2): inactive; growth inhibition (GI) (SK-MEL-28): inactive; inhibition of growth at 10 µM (SK-MEL-5): 5.6%; inhibition of growth at 10 µM [21]: 3.73%; inhibition of growth at 10 µM [22]: 3.94%; inhibition of growth at 10 µM [23]: 2.23%; inhibition of growth at 10 µM [24]: 8.38%; inhibition of growth at 10 µM [25]: 12.8%; inhibition of growth at 10 µM [26]: 3.66%; inhibition of growth at 10 µM [27]: 22.2%; growth inhibition (GI) (NCI/ADR-RES): inactive; growth inhibition (GI) (SK-OV-3): inactive; inhibition of growth at 10 µM (786-0): 6.04%; inhibition of growth at 10 µM (A498): 13.4%; inhibition of growth at 10 µM (ACHN): 8.7%
